In ChEMBL document CHEMBL3991601, “The target landscape of clinical kinase drugs” (Science, 2017):
Calls of active or inactive are those of the source.

Assays:
[1] = biological target: T1, Probable ATP-dependent RNA helicase DDX6 (Homo sapiens, UniProt P26196)
T1 sequence (P26196 whole entry): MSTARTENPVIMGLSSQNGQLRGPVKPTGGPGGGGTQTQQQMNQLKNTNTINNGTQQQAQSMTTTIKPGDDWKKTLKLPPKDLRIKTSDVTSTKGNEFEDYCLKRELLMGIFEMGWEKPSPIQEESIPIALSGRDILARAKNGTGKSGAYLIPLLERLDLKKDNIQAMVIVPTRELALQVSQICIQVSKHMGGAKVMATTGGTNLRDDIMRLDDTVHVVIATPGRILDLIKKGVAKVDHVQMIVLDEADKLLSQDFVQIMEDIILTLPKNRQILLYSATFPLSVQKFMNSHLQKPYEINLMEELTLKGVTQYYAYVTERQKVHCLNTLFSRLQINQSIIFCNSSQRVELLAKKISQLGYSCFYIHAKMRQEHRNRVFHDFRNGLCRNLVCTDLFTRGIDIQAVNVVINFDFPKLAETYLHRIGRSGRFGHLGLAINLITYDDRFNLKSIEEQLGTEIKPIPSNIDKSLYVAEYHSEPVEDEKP

[2] = biological target: NADH dehydrogenase [ubiquinone] 1 alpha subcomplex subunit 13 (Homo sapiens, UniProt Q9P0J0)
[3] = biological target: T2, Serine/threonine-protein kinase NLK (Homo sapiens, UniProt Q9UBE8)
T2 sequence (Q9UBE8 whole entry): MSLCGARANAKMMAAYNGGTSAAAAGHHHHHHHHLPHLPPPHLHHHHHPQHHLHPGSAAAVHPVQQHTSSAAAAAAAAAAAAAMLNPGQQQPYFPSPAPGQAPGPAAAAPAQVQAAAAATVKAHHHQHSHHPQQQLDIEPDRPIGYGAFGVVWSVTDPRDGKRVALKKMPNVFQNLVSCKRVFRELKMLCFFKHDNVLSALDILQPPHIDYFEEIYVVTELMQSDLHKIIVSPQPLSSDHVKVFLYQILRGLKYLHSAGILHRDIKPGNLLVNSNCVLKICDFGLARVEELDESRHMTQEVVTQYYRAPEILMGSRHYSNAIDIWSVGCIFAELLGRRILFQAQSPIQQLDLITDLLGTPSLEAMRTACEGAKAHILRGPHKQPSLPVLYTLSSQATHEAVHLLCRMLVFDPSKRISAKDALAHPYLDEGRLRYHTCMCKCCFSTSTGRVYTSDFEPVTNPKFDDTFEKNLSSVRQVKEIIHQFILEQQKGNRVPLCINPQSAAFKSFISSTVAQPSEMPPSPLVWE

[4] = biological target: T3, Ras-related protein Rab-27A (Homo sapiens, UniProt P51159)
T3 sequence (P51159 whole entry): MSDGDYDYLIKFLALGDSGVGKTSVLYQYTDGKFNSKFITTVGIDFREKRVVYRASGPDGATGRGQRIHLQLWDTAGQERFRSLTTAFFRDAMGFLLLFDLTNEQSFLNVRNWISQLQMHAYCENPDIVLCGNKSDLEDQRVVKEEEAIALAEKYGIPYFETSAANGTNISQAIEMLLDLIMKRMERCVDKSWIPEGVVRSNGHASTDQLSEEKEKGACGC

Rab-like protein 3 = biological target: T4, Rab-like protein 3 (Homo sapiens, UniProt Q5HYI8)
T4 sequence (Q5HYI8 whole entry): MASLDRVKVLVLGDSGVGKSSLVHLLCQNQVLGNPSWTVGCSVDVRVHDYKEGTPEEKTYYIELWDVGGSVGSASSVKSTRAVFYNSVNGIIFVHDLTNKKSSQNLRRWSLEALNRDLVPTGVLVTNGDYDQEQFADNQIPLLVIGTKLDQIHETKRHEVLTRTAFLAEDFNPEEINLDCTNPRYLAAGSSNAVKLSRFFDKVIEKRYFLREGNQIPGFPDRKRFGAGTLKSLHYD

[5] = biological target: T5, Signal recognition particle receptor subunit alpha (Homo sapiens, UniProt P08240)
T5 sequence (P08240 whole entry): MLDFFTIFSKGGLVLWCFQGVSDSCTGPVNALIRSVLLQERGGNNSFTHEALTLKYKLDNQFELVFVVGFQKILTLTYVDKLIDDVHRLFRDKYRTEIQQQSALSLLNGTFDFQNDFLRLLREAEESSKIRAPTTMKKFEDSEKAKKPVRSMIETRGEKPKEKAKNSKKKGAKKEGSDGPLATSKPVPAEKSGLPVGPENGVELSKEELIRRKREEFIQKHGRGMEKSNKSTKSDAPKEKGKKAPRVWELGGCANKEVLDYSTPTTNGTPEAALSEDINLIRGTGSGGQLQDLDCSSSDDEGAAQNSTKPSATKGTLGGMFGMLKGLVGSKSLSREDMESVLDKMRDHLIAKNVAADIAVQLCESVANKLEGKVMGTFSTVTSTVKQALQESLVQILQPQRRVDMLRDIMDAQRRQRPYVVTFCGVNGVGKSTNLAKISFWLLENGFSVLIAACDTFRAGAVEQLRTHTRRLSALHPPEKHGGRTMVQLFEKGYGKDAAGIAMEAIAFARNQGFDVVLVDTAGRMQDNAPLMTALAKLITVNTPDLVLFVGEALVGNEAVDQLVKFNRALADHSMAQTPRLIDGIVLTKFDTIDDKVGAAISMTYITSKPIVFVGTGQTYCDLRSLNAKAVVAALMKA

[6] = biological target: T6, Uncharacterized protein FLJ45252 (Homo sapiens, UniProt Q6ZSR9); details: read-out: Kd apparent; k-562, colo 205, sk-n-be(2) and mv-4-11
T6 sequence (Q6ZSR9 whole entry): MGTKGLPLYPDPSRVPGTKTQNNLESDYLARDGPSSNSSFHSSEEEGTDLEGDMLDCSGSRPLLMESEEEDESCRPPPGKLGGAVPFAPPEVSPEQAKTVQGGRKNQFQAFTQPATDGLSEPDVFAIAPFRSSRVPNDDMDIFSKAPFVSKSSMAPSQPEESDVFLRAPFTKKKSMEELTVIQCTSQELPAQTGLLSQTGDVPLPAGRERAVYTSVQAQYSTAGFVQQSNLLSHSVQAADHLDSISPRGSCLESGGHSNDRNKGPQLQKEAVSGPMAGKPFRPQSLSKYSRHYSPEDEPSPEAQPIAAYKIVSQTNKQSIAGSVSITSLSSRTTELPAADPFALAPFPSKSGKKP
Note: in the data inactive means no Kd found up to 30 µM.

Sequence of NADH dehydrogenase [ubiquinone] 1 alpha subcomplex subunit 13 (Q9P0J0 whole entry, one chain of several): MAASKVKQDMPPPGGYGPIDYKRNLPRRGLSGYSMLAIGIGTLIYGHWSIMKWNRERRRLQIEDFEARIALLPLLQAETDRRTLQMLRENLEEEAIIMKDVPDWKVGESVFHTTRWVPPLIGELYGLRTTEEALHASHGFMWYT

| Structure (SMILES) | Kd [1] | Kd [2] | Kd [3] | Kd [4] | Kd (Rab-like protein 3) | Kd [5] | Kd [6] |
| --- | --- | --- | --- | --- | --- | --- | --- |
| Cn1c(=O)n(-c2ccc(C(C)(C)C#N)cc2)c2c3cc(-c4cnc5ccccc5c4)ccc3ncc21 [DACTOLISIB] | > 30 µM (inactive) | > 30 µM (inactive) | > 30 µM (inactive) | > 30 µM (inactive) | > 30 µM (inactive) | > 30 µM (inactive) | > 30 µM (inactive) |
| CC[C@@](C)(Nc1ccnc(-c2c[nH]c3ncccc23)n1)C(=O)NCC(F)(F)F [DECERNOTINIB] | > 30 µM (inactive) | > 30 µM (inactive) | > 30 µM (inactive) | > 30 µM (inactive) | > 30 µM (inactive) | > 30 µM (inactive) | 2.64 µM (active) |
| CNC(=O)c1ccc(Nc2ncc(C(F)(F)F)c(NCc3nccnc3N(C)S(C)(=O)=O)n2)cc1 [DEFACTINIB] | > 30 µM (inactive) | > 30 µM (inactive) | > 30 µM (inactive) | > 30 µM (inactive) | > 30 µM (inactive) | > 30 µM (inactive) | > 30 µM (inactive) |
| COc1cc(Nc2ncc(F)c(Nc3ccc4c(n3)N(COP(=O)(O)O)C(=O)C(C)(C)O4)n2)cc(OC)c1OC [FOSTAMATINIB] | > 30 µM (inactive) | > 30 µM (inactive) | > 30 µM (inactive) | > 30 µM (inactive) | > 30 µM (inactive) | > 30 µM (inactive) | > 30 µM (inactive) |
| CCc1nc(C(N)=O)c(Nc2ccc(N3CCC(N4CCN(C)CC4)CC3)c(OC)c2)nc1NC1CCOCC1 [GILTERITINIB] | > 30 µM (inactive) | > 30 µM (inactive) | > 30 µM (inactive) | > 30 µM (inactive) | 4.83 µM | > 30 µM (inactive) | 0.011 µM (active) |
| O=S(=O)(c1cccc2c(O)nccc12)N1CCCNCC1 [HYDROXYFASUDIL] | > 30 µM (inactive) | > 30 µM (inactive) | > 30 µM (inactive) | > 30 µM (inactive) | > 30 µM (inactive) | > 30 µM (inactive) | > 30 µM (inactive) |
| C#Cc1cccc(Nc2ncnc3cc4c(cc23)OCCOCCOCCO4)c1 [ICOTINIB] | > 30 µM (inactive) | > 30 µM (inactive) | > 30 µM (inactive) | > 30 µM (inactive) | > 30 µM (inactive) | > 30 µM (inactive) | > 30 µM (inactive) |
| C[C@]1(O)C[C@@H](c2nc(-c3ccc4ccc(-c5ccccc5)nc4c3)c3c(N)nccn32)C1 [LINSITINIB] | > 30 µM (inactive) | > 30 µM (inactive) | > 30 µM (inactive) | > 30 µM (inactive) | > 30 µM (inactive) | > 30 µM (inactive) | > 30 µM (inactive) |
| CN(c1ncccc1CNc1nc(Nc2ccc3c(c2)CC(=O)N3)ncc1C(F)(F)F)S(C)(=O)=O [PF-00562271] | > 30 µM (inactive) | > 30 µM (inactive) | > 30 µM (inactive) | > 30 µM (inactive) | > 30 µM (inactive) | > 30 µM (inactive) | > 30 µM (inactive) |
| COCCN1CCN(Cc2ccc(-c3n[nH]c4c3C(=O)c3c(NC(=O)NN5CCOCC5)cccc3-4)cc2)CC1 [RGB-286638] | > 30 µM (inactive) | > 30 µM (inactive) | > 30 µM (inactive) | > 30 µM (inactive) | > 30 µM (inactive) | > 30 µM (inactive) | 0.022 µM (active) |

Results, then the compound that gave them:

| Kd [1] | Kd [2] | Kd [3] | Kd [4] | Kd (Rab-like protein 3) | Kd [5] | Kd [6] | Structure (SMILES) |
| --- | --- | --- | --- | --- | --- | --- | --- |
| > 30 µM (inactive) | > 30 µM (inactive) | > 30 µM (inactive) | > 30 µM (inactive) | > 30 µM (inactive) | > 30 µM (inactive) | > 30 µM (inactive) | COc1cc2ncnc3c2cc1OCCCCCN(C)Cc1ccc(Br)cc1N3 [JNJ-26483327] |
| > 30 µM (inactive) | > 30 µM (inactive) | > 30 µM (inactive) | > 30 µM (inactive) | > 30 µM (inactive) | > 30 µM (inactive) | > 30 µM (inactive) | Cc1ccc(C(=O)Nc2ccc(Oc3cc4cnn(C)c4cc3-c3cn[nH]c3)c(F)c2)c(=O)n1-c1ccc(F)cc1 [MERESTINIB] |
| > 30 µM (inactive) | > 30 µM (inactive) | > 30 µM (inactive) | > 30 µM (inactive) | > 30 µM (inactive) | > 30 µM (inactive) | > 30 µM (inactive) | O=C(NOC[C@H](O)CO)c1ccc(F)c(F)c1Nc1ccc(I)cc1F [MIRDAMETINIB] |
| > 30 µM (inactive) | > 30 µM (inactive) | 3.33 µM | > 30 µM (inactive) | > 30 µM (inactive) | > 30 µM (inactive) | > 30 µM (inactive) | COc1cccc2cc(-c3nc([C@H]4CC[C@H](C(=O)O)CC4)n4ncnc(N)c34)[nH]c12 [OSI-027] |
| > 30 µM (inactive) | > 30 µM (inactive) | > 30 µM (inactive) | > 30 µM (inactive) | > 30 µM (inactive) | > 30 µM (inactive) | > 30 µM (inactive) | O=C(NC[C@H](O)CO)c1ccncc1Nc1ccc(I)cc1F [PIMASERTIB] |
| > 30 µM (inactive) | > 30 µM (inactive) | > 30 µM (inactive) | > 30 µM (inactive) | > 30 µM (inactive) | > 30 µM (inactive) | > 30 µM (inactive) | CNC(=O)c1cc(COc2nnc(Nc3ccc(Cl)cc3)c3ccoc23)ccn1 [TELATINIB] |
| > 30 µM (inactive) | > 30 µM (inactive) | > 30 µM (inactive) | > 30 µM (inactive) | > 30 µM (inactive) | > 30 µM (inactive) | > 30 µM (inactive) | Cc1cc(-c2cc(OC(=O)c3ccccc3)ccc2Cl)cc2nnc(Nc3ccc(OCCN4CCCC4)cc3)nc12 [TG100-801] |
| > 30 µM (inactive) | > 30 µM (inactive) | > 30 µM (inactive) | > 30 µM (inactive) | > 30 µM (inactive) | > 30 µM (inactive) | > 30 µM (inactive) | C[C@@H]1COC(Nc2ccc3ncnc(Nc4ccc(OCc5nccs5)c(Cl)c4)c3c2)=N1 [VARLITINIB] |
| > 30 µM (inactive) | > 30 µM (inactive) | > 30 µM (inactive) | > 30 µM (inactive) | > 30 µM (inactive) | > 30 µM (inactive) | > 30 µM (inactive) | CNC(=O)c1cccc(-c2ccc3c(N4CCOC[C@@H]4C)nc(N4CCOC[C@@H]4C)nc3n2)c1 [VISTUSERTIB] |
